pEC50, pIC50, pKi: −log10 of the molar value.
Assays:
AMPA receptors = test: [3H]AMPA binding (displacement of [3H]AMPA, in the presence of KSCN); conditions: only high affinity binding sites labelled
Method: In this test the affinity of a drug for AMPA receptors is determined by measuring the ability to displace [^3H]AMPA from AMPA receptors.
The test was carried out in accordance with a modified version of the method of Honoré, T. and Nielsen, M., Neurosci.Lett. 1985, 54, 27-32. The test was carried out in the presence of KSCN. This means that only the [^3H]AMPA high affinity binding sites were labelled.
The membrane preparations used were obtained in accordance with the method of Ransom, R.W. and Stec, J.Neurochem. 1988, 51, 830-836.

NMDA-receptor = test: [3H]CPP binding (displacement of [3H]CPP from the transmitter binding site)
AMPA = test: Cortical wedge model (electrophysiology, rat cortical wedge preparation), AMPA subtype; format: cell-based; conditions: receptor subtype AMPA; for pEC50: agonist; for pKi: starred in IC50 column (*) = Ki value)
Method: (§1) The Cortical wedge model is a test in which slices of rat brain is examined in vitro in order to quantify the effect of ligands at the Glu-receptors and evaluate the pharmacological profile of the ligands (i.e. agonist/antagonist properties). The test was performed as described by Harrison, N.L. and Simmonds, M.A. Br.J. Pharmacol. 1985, 84, 381-391 as modified according to Wheatley, P.L. Br.J.Pharmacol. 1986, 87, 159P.

NMDA = test: Cortical wedge model (electrophysiology, rat cortical wedge preparation), NMDA subtype; format: cell-based; conditions: receptor subtype NMDA; for pIC50: antagonist; for pEC50: agonist
Method: as §1

KAIN = test: Cortical wedge model (electrophysiology, rat cortical wedge preparation), KAIN subtype; format: cell-based; conditions: receptor subtype KAIN
Method: as §1

Row | Compound | pIC50 (AMPA receptors) | pIC50 (NMDA-receptor) | pEC50 (AMPA) | Profile (AMPA) | Profile (NMDA) | also measured
1 | NC(Cc1c(O)noc1-c1cccs1)C(=O)O (single isomer, unassigned; (-)) [Compound 15a, (-)-2-Amino-3-[3-hydroxy-5-(2-thienyl)isoxazol-4-yl]propionic Acid] | – | – | – | Antagonist | – | pIC50 (AMPA; antagonist): 3.52
2 | NC(CCc1c(O)noc1-c1ccsc1)C(=O)O (racemic) [Compound 4d, (RS)-2-Amino-4-[3-hydroxy-5-(3-thienyl)isoxazol-4-yl]butanoic Acid] | < 4.00 | 6.15 | – | – | Antagonist | pIC50 (NMDA): 5.07
3 | NC(CCCc1c(O)noc1-c1ccccc1)C(=O)O (racemic) [Compound 3a, (RS)-2-Amino-5-(3-hydroxy-5-phenylisoxazol-4-yl)pentanoic Acid] | 5.05 | 4.68 | 3.62 | Agonist | – | –
4 | NC(CCc1c(O)noc1-c1cccs1)C(=O)O (racemic) [Compound 4c, (RS)-2-Amino-4-[3-hydroxy-5-(2-thienyl)isoxazol-4-yl]butanoic Acid] | < 4.00 | 6.72 | – | – | Antagonist | pIC50 (NMDA): 5.60
5 | N[C@H](Cc1c(O)noc1-c1ccccc1)C(=O)O [Compound 14b, (R)-(-)-2-Amino-3-(3-hydroxy-5-phenylisoxazol-4-yl)propionic acid] | – | – | – | Antagonist | – | pKi (AMPA): 3.54; Profile (KAIN): Antagonist; pKi (KAIN; starred in IC50 column (*) = Ki value)): 3.02
6 | NC(Cc1c(O)noc1-c1cccs1)C(=O)O (racemic) [Compound 1a, (RS)-2-Amino-3-[3-hydroxy-5-(2-thienyl)isoxazol-4-yl]propionic Acid] | 6.55 | < 4.00 | 5.24 | Agonist | – | –
7 | NC(CCc1c(O)noc1-c1ccc(F)cc1)C(=O)O (racemic) [Compound 4a, (RS)-2-Amino-4-[5-(4-fluorophenyl)-3-hydroxyisoxazol-4-yl]butanoic Acid] | < 4.00 | 6.12 | – | – | Antagonist | pIC50 (NMDA): 5.05
8 | NC(C(=O)O)c1c(O)noc1-c1ccccc1 (racemic) [Compound 2a, (RS)-2-Amino-2-(3-hydroxy-5-phenylisoxazol-4-yl)acetic Acid] | 4.37 | 5.12 | – | – | Part. Ago.# | pEC50 (NMDA): 3.52
9 | NC(C(=O)O)c1c(O)noc1-c1cccs1 (racemic) [Compound 2b, (RS)-2-Amino-2-[3-hydroxy-5-(2-thienyl)isoxazol-4-yl]acetic Acid] | – | – | – | – | Agonist | pEC50 (NMDA): 4.52
10 | NC(CCc1c(O)noc1-c1ccccc1)C(=O)O (racemic) [Compound 4b, (RS)-2-Amino-4-(3-hydroxy-5-phenylisoxazol-4-yl)butanoic Acid] | < 4.00 | 5.60 | – | – | Antagonist | pIC50 (NMDA): 4.74
11 | Nc1c(NCc2c(O)noc2-c2ccsc2)c(=O)c1=O [Compound 5c, 4-[(2-Amino-3,4-dioxo-1-cyclobuten-1-yl)aminomethyl]-3-hydroxy-5-(3-thienyl)isoxazole] | – | – | – | Antagonist | Antagonist | –
12 | NC(Cc1c(O)noc1-c1ccc(F)cc1)C(=O)O (single isomer, unassigned; (-)) [Compound 14c, (-)-2-Amino-3-[5-(4-fluorophenyl)-3-hydroxyisoxazol-4-yl]propionic Acid] | – | – | – | Antagonist | – | pKi (AMPA): 3.47
13 | Cc1ccc(-c2onc(O)c2CC(N)C(=O)O)s1 (racemic) [Compound 1f, (RS)-2-Amino-3-[3-hydroxy-5-(5-methyl-2-thienyl)isoxazol-4-yl]propionic Acid] | – | – | 3.89 | Agonist | – | –
14 | NC(Cc1c(O)noc1-c1ccsc1)C(=O)O (racemic) [Compound 1b, (RS)-2-Amino-3-[3-hydroxy-5-(3-thienyl)isoxazol-4-yl]propionic Acid] | 5.46 | < 4.00 | 4.37 | Agonist | – | –

Continued, in another order:

Row | pIC50 (AMPA receptors) | pIC50 (NMDA-receptor) | pEC50 (AMPA) | Compound | Profile (AMPA) | Profile (NMDA) | also measured
15 | 4.48 | 4.66 | – | Nc1c(NCc2c(O)noc2-c2ccccc2)c(=O)c1=O [Compound 5a, 4-[(2-Amino-3,4-dioxo-1-cyclobuten-1-yl)aminomethyl]-3-hydroxy-5-phenylisoxazole] | Antagonist | Antagonist | Profile (KAIN): Antagonist
16 | – | – | 3.77 | NC(Cc1c(O)noc1-c1ccc(F)cc1)C(=O)O (single isomer, unassigned; (+)) [Compound 14d, (+)-2-Amino-3-[5-(4-fluorophenyl)-3-hydroxyisoxazol-4-yl]propionic Acid] | Agonist | – | –
17 | – | – | 4.26 | NC(Cc1c(O)noc1-c1ccccn1)C(=O)O (racemic) [Compound 13a, (RS)-2-Amino-3-[3-hydroxy-5-(2-pyridyl)isoxazol-4-yl)propionic Acid] | Agonist | – | –
18 | – | – | 5.13 | NC(Cc1c(O)noc1-c1ccncc1)C(=O)O (racemic) [Compound 13b, (RS)-2-Amino-3-[3-hydroxy-5-(4-pyridyl)isoxazol-4-yl]propionic Acid] | Agonist | – | –
19 | 5.26 | – | 3.64 | N[C@@H](Cc1c(O)noc1-c1ccccc1)C(=O)O [Compound 14a, (S)-(+)-2-Amino-3-(3-hydroxy-5-phenylisoxazol-4-yl)propionic acid] | Agonist | – | –
20 | 4.42 | 5.16 | – | Nc1c(NCc2c(O)noc2-c2cccs2)c(=O)c1=O [Compound 5b, 4-[(2-Amino-3,4-dioxo-1-cyclobuten-1-yl)aminomethyl]-3-hydroxy-5-(2-thienyl)isoxazole] | – | Antagonist | pIC50 (NMDA): 4.52
21 | – | – | 5.57 | NC(Cc1c(O)noc1-c1cccs1)C(=O)O (single isomer, unassigned; (+)) [Compound 15b, (+)-2-Amino-3-[3-hydroxy-5-(2-thienyl)isoxazol-4-yl]propionic acid] | Agonist | – | –
